# Data taken from ChEMBL document CHEMBL5365472, “DDD-028: A potent, neuroprotective, non-opioid compound for the treatment of diabetic neuropathy” (Bioorg Med Chem Lett, 2023).
# Active and inactive are the calls of the source.
# Tests used:
# Type in all cases: functional, organism-based
# [1] = tested on: Rattus norvegicus; test: Anti-allodynic activity in rat model of STZ induced diabetic neuropathy assessed as reduction in mechanical hyperalgesia by measuring increase in weight bearing at 1 mg/kg, po measured after 30 min by paw pressure test
# [2] = tested on: Rattus norvegicus; test: Anti-allodynic activity in rat model of STZ induced diabetic neuropathy assessed as reduction in mechanical allodynia by measuring increase in paw withdrawal threshold at 1 mg/kg, po measured after 30 min by electronic von frey test
# [3] = tested on: Mus musculus; test: Anti-allodynic activity in mouse model of CCI induced neuropathic pain assessed as increase in paw withdrawal threshold at 3 mg/kg, po by static von frey test
# [4] = tested on: Rattus norvegicus; test: Anti-allodynic activity in rat model of STZ induced diabetic neuropathy assessed as reduction in mechanical allodynia by measuring increase in paw withdrawal threshold at 25 mg/kg, po measured for 90 min by electronic von frey test
# [5] = tested on: Rattus norvegicus; test: Anti-allodynic activity in rat model of STZ induced diabetic neuropathy assessed as reduction in mechanical hyperalgesia by measuring increase in weight bearing at 25 mg/kg, po measured after 90 min by paw pressure test
# [6] = tested on: Rattus norvegicus; test: Analgesic activity in rat acute pain model at 1 to 10 mg/kg by hot plate test; conditions: dose 1-10 mg/kg
# [7] = tested on: Rattus norvegicus; test: Analgesic activity in rat acute pain model at 1 to 10 mg/kg by tail flick test; conditions: dose 1-10 mg/kg
# [8] = tested on: Rattus norvegicus; test: Analgesic activity in rat acute pain model at 3 mg/kg by hot plate test
# [9] = tested on: Rattus norvegicus; test: Analgesic activity in rat acute pain model at 3 mg/kg by tail flick test
SMILES,Activity [1],Activity [2],Activity [3],Activity [4],Activity [5],Activity [6],Activity [7],Activity [8],Activity [9]
CN1CCc2c(c3cccc4c3n2CCc2ccccc2-4)C1,Active,Active,Active,Active,Active,inactive,inactive,–,–
CN1CC[C@]23c4c5ccc(O)c4O[C@H]2[C@@H](O)C=C[C@H]3[C@H]1C5,–,–,–,–,–,–,–,Active,Active
